# Laboratory results from patent US11173146B2, “Selective activators of the intermediate conductance CA2+activated K+ channel KCa3.1 and their methods of use” (The Regents of the University of California, priority 2014, dated 2021).
# “Also recorded” adds a separate entry of the source. Like-named read-outs stand apart in the source and are kept apart here.
# Experiments:
# hNaV1.5 = target: T1, hNaV1.5 (Homo sapiens, UniProt Q14524); assay: NaV1.5 current inhibition (HEK-293); format: cell-based; details: HEK293
# T1 construct: host or cells: HEK-293
# [1] = tested on: L-NAME-treated moderately hypertensive mice; assay: Telemetry in L-NAME-treated hypertensive mice; format: in vivo, mouse
# Procedure: Telemetry. […] Maximal injection volume was ≤600 μl. […] Data were analyzed using the DSI software.
# In contrast, SKA-121 at 100 mg/kg produced a significant drop in MAP by ˜25 mm Hg over 6 h.
# [2] = Plasma protein binding by ultrafiltration; format: in vitro ADME; details: rat plasma, 10 μM compound
# Procedure: Rat plasma (500 μl) was spiked with 10 μM of compound in 1% dimethylsulfoxide and the sample loaded onto a Microcon YM-30 Centrifugal Filter (Millipore Corp., Bedford, Mass., USA) and centrifuged at 13,500 g for 30 minutes at room temperature. The retentate was collected by inverting the filter into an Eppendorf tube and spinning at 13,500 g for 15 minutes.
# hCaV1.2 = target: T2, hCaV1.2 (Homo sapiens, UniProt Q13936); assay: CaV1.2 current inhibition (HEK-293); format: cell-based; details: HEK293
# T2 construct: host or cells: HEK-293
# [3] = tested on: porcine coronary arteries; assay: Isometric myography on porcine coronary arteries, bradykinin-induced EDH-type relaxation; details: compound 1 μM; for BK (1 μM)-induced relaxation potentiated to: U46619-precontracted, L-NNA and indomethacin
# From the text: Isometric Myography on Porcine Coronary Arteries (PCA). PCA were carefully dissected from hearts kindly provided by the local abattoir (Mercazaragoza, Zaragoza, Spain), cleaned of fat and connective tissue, and cut into 3-4 mm rings. Rings were mounted on hooks connected to an isometric force transducer (Pioden UF1, Graham Bell House, Canterbury, UK) and were pre-stretched to an initial tension of 1 g. […] Changes in tension were registered using a Mac Lab System/8e program (AD Instruments Inc., Milford, Mass.). The buffer contained the NO-synthase blocker, Nω-nitro-L-arginine (L-NNA, 300 μM), and the cyclooxygenase blocker indomethacin (10 μM) in order to measure EDH-type relaxation. […] After washout, rings were contracted with a high KCl buffer (60 mM) to determine maximal contraction. […] UCL1684 and U46619 were purchased from Tocris (Wiesbaden-Nordenstadt, Germany). Data analysis: EDH-type relaxations were determined as % change of U46619 contraction and are shown relative to the totally relaxed state (w/o U46619).
# human KCa2.3 = target: T3, human KCa2.3 (Homo sapiens, UniProt Q9UGI6); assay: Manual whole-cell patch-clamp KCa2.3 activation (COS-7); format: cell-based
# T3 construct: The cloning of hKCa2.3 (19 CAG repeats) and hKCa3.1 has been previously described (Wulff et al., 2000)
# From the text: Cells, Cell lines and Clones. […] The cloning of hKCa2.3 (19 CAG repeats) and hKCa3.1 has been previously described (Wulff et al., 2000). The hKCa2.3 clone was later stably expressed in COS-7 cells at Aurora Biosciences Corp., San Diego, Calif. Cell lines stably expressing other mammalian ion channels were gifts from several sources: hKCa1.1 in HEK-293 cells (Andrew Tinker, University College London); hKV2.1 in HEK293 cells (James Trimmer, UC Davis); KV11.1 (HERG) in HEK-293 cells (Craig January, University of Wisconsin, Madison); hNaV1.4 in HEK-293 cells (Frank Lehmann-Horn, University of Ulm, Germany), hNaV1.5 in HEK-293 cells (Christopher Lossin, University of California Davis), and hCaV1.2 in HEK-293 cells (Franz Hofmann, Munich, Germany).
# Electrophysiology. Experiments were conducted either manually with an EPC-10 amplifier (HEKA, Lambrecht/Pfalz, Germany) or on a QPatch-16 automated electrophysiology platform (Sophion Biosciences, Denmark). […] Patch pipettes were pulled from soda lime glass (micro-hematocrit tubes, Kimble Chase, Rochester, N.Y.) and had resistances of 2-3 MΩ. […] Free Ca^2+ concentrations were calculated with MaxChelator assuming a temperature of 25° C., a pH of 7.2 and an ionic strength of 160 mM. […] Na^+ aspartate Ringer was used as an external solution (in mM): 160 Na^+ aspartate, 4.5 KCl, 2 CaCl2, 1 MgCl2, 5 HEPES, pH 7.4, 290-310 mOsm. […] Reduction of both peak and tail current by the drug was determined. NaV1.7 currents were recorded with 30 ms pulses from −90 mV to −10 mV every 10 sec with a CsF-based pipette solution and normal Ringer as an external solution. CaV1.2 currents were elicited by 100-ms depolarizing pulses from −80 to 20 mV every 10 sec with a CsCl-based pipette solution and an external solution containing 30 mM BaCl2. Blockade of both Na^+ and Ca^2+ currents was determined as reduction of the current minimum.
# For all electrophysiology experiments solutions of benzothiazoles and benzooxazoles were always freshly prepared from 1 mM or 10 mM stock solutions in DMSO during the experiment. The final DMSO concentration never exceeded 1%. For automated assays glass vial inserts (Sophion Biosciences, Denmark) were filled with 350-400 μL of compound solution and placed into the glass insert base plate for use in the QPatch assay right before starting the QPatch.
# The compounds synthesized by these methods as well as five commercially available compounds were tested for their KCa2.3 and KCa3.1 activating activity using either manual or automated whole-cell patch-clamp. Our group previously described the establishment of a QPatch assay for KCa3.1 modulators. […] We here made use of this assay and determined EC50 values for KCa3.1 activation using HEK-293 cells stably expressing human KCa3.1. Activities on human KCa2.3 were determined by manual electrophysioiogy since we currently only have KCa2.3 available in COS-7 cells, which are difficult to handle on the QPatch.
# hKCa1.1 = target: T4, hKCa1.1 (Homo sapiens, UniProt Q12791); assay: KCa1.1 current modulation (QPatch); format: cell-based
# T4 construct: host or cells: HEK-293
# T4 sequence (Q12791 whole entry): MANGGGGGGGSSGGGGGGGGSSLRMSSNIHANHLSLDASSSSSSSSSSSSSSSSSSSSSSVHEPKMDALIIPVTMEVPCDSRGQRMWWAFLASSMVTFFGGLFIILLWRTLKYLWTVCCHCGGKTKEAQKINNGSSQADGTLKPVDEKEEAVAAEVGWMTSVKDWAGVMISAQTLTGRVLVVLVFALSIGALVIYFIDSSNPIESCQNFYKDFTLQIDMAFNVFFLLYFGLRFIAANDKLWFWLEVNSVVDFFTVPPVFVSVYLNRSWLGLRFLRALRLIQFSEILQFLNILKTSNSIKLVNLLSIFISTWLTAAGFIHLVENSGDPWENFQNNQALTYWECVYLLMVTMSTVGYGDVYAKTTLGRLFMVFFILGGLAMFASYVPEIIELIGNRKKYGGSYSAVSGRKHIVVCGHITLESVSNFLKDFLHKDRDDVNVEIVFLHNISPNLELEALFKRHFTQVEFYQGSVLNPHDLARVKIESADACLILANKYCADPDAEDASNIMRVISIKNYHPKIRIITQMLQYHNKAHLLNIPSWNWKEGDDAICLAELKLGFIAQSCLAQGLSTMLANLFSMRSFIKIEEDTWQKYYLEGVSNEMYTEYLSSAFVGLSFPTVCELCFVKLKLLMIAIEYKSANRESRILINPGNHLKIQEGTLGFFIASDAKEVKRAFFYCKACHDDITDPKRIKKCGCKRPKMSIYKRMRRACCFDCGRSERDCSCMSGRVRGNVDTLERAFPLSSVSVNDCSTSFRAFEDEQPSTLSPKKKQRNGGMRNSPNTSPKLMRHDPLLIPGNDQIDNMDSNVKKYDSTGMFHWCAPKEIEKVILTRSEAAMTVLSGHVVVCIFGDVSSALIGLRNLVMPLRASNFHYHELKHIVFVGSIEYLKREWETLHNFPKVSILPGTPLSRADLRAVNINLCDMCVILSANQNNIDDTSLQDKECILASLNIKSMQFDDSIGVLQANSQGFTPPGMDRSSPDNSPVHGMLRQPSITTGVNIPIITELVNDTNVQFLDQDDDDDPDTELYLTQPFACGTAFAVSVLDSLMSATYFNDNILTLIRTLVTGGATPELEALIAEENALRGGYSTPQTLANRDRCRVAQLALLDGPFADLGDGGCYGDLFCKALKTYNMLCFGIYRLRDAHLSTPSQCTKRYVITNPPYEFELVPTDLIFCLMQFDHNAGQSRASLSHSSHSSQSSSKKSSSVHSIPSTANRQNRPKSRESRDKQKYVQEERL
# T3 sequence (Q9UGI6 with tags, fused parts or gaps DUP76-80): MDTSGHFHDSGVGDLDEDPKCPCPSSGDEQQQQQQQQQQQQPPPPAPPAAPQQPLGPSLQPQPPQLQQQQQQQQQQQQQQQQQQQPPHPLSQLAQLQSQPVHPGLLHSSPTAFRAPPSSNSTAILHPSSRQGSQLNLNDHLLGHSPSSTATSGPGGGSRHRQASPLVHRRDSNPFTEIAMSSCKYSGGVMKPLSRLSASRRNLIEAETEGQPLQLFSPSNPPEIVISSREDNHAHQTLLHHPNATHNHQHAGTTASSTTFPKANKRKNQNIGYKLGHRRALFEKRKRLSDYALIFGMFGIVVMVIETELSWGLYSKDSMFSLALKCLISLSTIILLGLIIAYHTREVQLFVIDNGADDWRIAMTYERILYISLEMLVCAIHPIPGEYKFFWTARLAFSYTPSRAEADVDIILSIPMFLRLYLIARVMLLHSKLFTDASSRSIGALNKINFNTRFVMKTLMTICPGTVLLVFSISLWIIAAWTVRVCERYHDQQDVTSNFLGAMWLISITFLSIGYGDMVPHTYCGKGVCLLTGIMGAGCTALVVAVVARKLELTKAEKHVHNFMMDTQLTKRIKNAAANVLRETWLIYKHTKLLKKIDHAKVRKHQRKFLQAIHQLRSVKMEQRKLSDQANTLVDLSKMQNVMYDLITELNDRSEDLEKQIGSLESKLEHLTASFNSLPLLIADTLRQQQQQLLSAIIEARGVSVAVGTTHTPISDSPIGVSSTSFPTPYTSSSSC
# T2 sequence (Q13936 whole entry): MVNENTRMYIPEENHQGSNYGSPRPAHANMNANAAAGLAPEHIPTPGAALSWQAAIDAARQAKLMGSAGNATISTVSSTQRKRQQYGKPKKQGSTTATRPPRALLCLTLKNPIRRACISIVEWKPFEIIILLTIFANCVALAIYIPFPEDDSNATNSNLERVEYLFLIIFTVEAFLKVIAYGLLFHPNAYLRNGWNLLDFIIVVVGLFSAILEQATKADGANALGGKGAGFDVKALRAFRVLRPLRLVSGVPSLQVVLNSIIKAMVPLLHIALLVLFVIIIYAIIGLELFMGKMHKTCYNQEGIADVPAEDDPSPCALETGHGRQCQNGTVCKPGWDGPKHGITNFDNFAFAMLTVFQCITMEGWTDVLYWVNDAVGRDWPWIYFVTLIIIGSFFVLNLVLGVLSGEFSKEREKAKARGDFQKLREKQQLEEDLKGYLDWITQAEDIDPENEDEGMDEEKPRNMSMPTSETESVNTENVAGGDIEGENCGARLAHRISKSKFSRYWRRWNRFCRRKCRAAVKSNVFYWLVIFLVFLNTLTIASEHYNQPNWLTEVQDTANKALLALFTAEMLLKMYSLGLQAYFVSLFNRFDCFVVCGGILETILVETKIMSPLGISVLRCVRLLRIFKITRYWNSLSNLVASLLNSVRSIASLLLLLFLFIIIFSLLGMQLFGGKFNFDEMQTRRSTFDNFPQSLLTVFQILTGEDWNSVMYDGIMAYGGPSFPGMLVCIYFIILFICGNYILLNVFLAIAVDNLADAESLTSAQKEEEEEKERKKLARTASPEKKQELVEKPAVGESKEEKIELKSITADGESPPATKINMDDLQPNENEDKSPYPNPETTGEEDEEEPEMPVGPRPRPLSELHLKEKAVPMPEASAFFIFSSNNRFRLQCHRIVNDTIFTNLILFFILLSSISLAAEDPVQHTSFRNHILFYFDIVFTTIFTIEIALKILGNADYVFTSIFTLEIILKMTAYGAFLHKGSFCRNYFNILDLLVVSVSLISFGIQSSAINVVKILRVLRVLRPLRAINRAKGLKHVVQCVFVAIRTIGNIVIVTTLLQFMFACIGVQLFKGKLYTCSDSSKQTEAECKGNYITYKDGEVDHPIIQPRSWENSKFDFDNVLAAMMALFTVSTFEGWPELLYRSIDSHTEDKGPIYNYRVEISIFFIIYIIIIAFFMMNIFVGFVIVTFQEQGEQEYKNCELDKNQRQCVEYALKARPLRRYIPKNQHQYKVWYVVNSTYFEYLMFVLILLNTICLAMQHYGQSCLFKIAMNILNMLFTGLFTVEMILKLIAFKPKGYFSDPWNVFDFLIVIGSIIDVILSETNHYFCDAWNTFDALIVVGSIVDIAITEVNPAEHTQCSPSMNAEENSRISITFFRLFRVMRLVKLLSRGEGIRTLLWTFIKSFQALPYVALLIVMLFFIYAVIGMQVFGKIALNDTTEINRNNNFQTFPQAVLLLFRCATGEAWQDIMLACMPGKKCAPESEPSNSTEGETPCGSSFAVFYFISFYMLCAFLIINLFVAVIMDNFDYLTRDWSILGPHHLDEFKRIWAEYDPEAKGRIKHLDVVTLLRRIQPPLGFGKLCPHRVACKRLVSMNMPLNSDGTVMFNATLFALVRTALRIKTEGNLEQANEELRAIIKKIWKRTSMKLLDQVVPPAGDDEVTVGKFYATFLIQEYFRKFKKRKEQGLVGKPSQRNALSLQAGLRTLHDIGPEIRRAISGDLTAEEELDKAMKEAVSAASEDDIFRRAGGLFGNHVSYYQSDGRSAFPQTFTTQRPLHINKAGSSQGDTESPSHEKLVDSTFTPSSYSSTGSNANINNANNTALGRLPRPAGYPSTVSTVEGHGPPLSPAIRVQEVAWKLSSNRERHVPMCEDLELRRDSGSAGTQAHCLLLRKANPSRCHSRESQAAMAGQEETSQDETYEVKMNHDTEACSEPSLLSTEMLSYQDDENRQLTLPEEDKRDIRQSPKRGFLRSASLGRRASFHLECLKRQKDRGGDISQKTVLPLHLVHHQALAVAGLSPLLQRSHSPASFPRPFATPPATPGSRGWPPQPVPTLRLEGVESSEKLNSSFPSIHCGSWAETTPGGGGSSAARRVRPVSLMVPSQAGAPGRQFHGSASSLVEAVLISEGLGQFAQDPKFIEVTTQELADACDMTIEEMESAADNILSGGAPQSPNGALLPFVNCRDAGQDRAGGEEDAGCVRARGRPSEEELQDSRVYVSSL
SMILES,inhibition at 50 µM (hNaV1.5; at 50 μM),HR ([1]; 100 mg/kg i.p.),drop in MAP ([1]; 100 mg/kg i.p.),duration of MAP drop ([1]; 100 mg/kg i.p.),"blood pressure ([1]; 100 mg/kg i.p., FIG. 6B)","fraction unbound at 30 min, 10 μM [2]",inhibition at 50 µM (hCaV1.2; at 50 μM),bradykinin-induced EDH-type relaxation [3],BK (1 μM)-induced relaxation potentiated to [3],EC50 (human KCa2.3; 250 nM free Ca2+; read-out: EC50 for KCa2.3 activation),"Hill coefficient nH, KCa2.3 concentration-response curve (human KCa2.3; FIG. 4 legend)",EC50 (human KCa2.3; Table 1; 250 nM free Ca2+; read-out: KCa2.3 EC50),KCa1.1 % of current (hKCa1.1; at 50 μM),inhibition at 25 µM (hNaV1.5; at 25 μM),HR ([1]; 60 mg/kg i.p.),MAP ([1]; 60 mg/kg i.p.),inhibition at 25 µM (hCaV1.2; at 25 μM),EC50 (human KCa2.3; read-out: EC50 for KCa2.3 activation; 250 nM free Ca2+),KCa1.1 % of current (hKCa1.1; at 25 μM)
"Cc1cc2nc(N)oc2c2ccccc12 [SKA-121, 5-Methylnaphtho[2,1-d]oxazol-2-amine]",32.1 ± 11.1%,remained virtually stable; also recorded: minor decrease,~25 mm Hg,6 h,reduced blood pressure,0.19,48.9 ± 2.7%,increased,≈ 300%,4.4 ± 2.3 µM,1.6,4.4 ± 2.6 µM,115% of current at 50 μM (3),–,–,–,–,–,–
"Cc1cc2sc(N)nc2c2ccccc12 [SKA-111, 5-methylnaphtho[1,2-d]thiazol-2-amine]",–,–,–,–,–,0.41,–,increased,≈ 200%,–,–,–,–,39.9 ± 11.1%,remained virtually stable; also recorded: only a minor drop,reduced blood pressure; also recorded: only a minor drop,49.5 ± 17%,13.7 ± 6.9 µM,120% of current at 25 μM (3)
